Experimental data taken from patent US9611277B2 (Janssen Pharmaceutica NV, priority 2013, dated 2017).
pKi: −log10 of the molar value.

Legend:
[1] = molecular target: human orexin 1 receptor (Homo sapiens, UniProt O43613); experiment: Human orexin 1 receptor radioligand binding; conditions: human orexin 1 receptor; averages of 2-20 runs; read-out: hOX1 Ki
Description: Data are analyzed using pc-Sandy macro and graphed on Graphpad Prism 5. For analysis, each concentration point is averaged from triplicate values and the averaged values are plotted on Graphpad Prism. The IC50 was determined by applying the following equation (GraphPad Prism 5.0, SanDiego) for one site competition where X=log (concentration) and Y=specific binding. Top denotes the total [^3H]-(1-(5-(2-fluoro-phenyl)-2-methyl-thiazol-4-yl)-1-((S)-2-(5-phenyl-(1,3,4)oxadiazol-2-ylmethyl)-pyrrolidin-1-yl)-methanone) binding, bottom denotes the nonspecific [^3H]-(1-(5-(2-fluoro-phenyl)-2-methyl-thiazol-4-yl)-1-((S)-2-(5-phenyl-(1,3,4)oxadiazol-2-ylmethyl)-pyrrolidin-1-yl)-methanone) binding. Graphpad Prism calculates Ki value from IC50 and the pre-determined Kd values for [^3H]-(1-(5-(2-fluoro-phenyl)-2-methyl-thiazol-4-yl)-1-((S)-2-(5-phenyl-(1,3,4)oxadiazol-2-ylmethyl)-pyrrolidin-1-yl)-methanone) and [3H]-EMPA. The Ki for each compound is then uploaded into 3DX. Each run comprises individual compounds in triplicate. The data in Table 1 and Table 2 represent averages from between 2-20 runs
Rat and Human Orexin 1 Receptor Radioligand Binding Studies
After centrifugation (2K×G, 5 min at 4° C.), the supernatant was aspirated and the pellets frozen and stored at −80° C. […] Each cell pellet from a 15 cm plate was resuspended in 10 mL, stored on ice, and homogenized for 45 sec prior to addition to the reactions. […] The final concentration of DMSO in the reactions is equal to or less than 0.1%. Total and nonspecific binding was determined in the absence and presence of 10 μM almorexant. The total volume of each reaction is 200 μL (20 μL of diluted compounds, 80 μL of [^3H]-(1-(5-(2-fluoro-phenyl)-2-methyl-thiazol-4-yl)-1-((S)-2-(5-phenyl-(1,3,4)oxadiazol-2-ylmethyl)-pyrrolidin-1-yl)-methanone) diluted in PBS and 100 μL of the cell suspension). […] The plates were washed 3 times by aspirating 30 ml PBS through the plates. Plates were dried in 55° C. oven for 60 min, scintillation fluid was added, and the radioactivity was counted on a Topcount (Packard).

[2] = molecular target: rat orexin 1 receptor (Rattus norvegicus, UniProt P56718); experiment: Rat orexin 1 receptor radioligand binding; conditions: rat orexin 1 receptor; averages of 2-20 runs; read-out: rOX1 Ki
How it was run: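 Competition binding with the tritiated thiazolyl-pyrrolidinyl-methanone radioligand in PBS on homogenized rat or human OX1R-expressing cell suspensions, ≤0.1% DMSO; nonspecific binding defined with 10 μM almorexant. Bound radioactivity read by scintillation after filtration; IC50 from one-site competition fit, converted to Ki using pre-determined radioligand Kd.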

[3] = molecular target: human orexin 2 receptor (Homo sapiens (Human), UniProt O43614); experiment: Human orexin 2 receptor radioligand binding; conditions: human orexin 2 receptor; averages of 2-20 runs; read-out: hOX2 Ki
Chain of human orexin 2 receptor (O43614 whole entry): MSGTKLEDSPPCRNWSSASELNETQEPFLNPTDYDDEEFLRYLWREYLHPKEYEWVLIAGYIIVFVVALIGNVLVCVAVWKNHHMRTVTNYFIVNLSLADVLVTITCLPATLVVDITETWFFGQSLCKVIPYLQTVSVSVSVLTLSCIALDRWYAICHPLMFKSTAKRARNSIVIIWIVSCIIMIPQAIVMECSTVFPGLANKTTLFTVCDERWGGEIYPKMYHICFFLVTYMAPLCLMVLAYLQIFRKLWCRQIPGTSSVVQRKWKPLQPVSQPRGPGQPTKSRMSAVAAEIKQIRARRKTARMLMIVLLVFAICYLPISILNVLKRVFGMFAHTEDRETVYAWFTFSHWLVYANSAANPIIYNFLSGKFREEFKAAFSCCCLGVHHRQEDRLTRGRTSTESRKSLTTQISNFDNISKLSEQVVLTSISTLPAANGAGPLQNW
How it was run: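 HEK293 cells stably expressing human OX2 receptor, homogenized, incubated with [3H]-EMPA and compounds (DMSO ≤0.1%); nonspecific binding with 10 μM almorexant. Filter-bound radioactivity counted by scintillation; IC50 from one-site competition fit of triplicates, Ki from IC50 and predetermined radioligand Kd, averaged over 2-20 runs.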

Row | SMILES | pKi [1] | pKi [2] | pKi [3]
1 | Cc1cnc(-n2nccn2)c(C(=O)N2C[C@H]3C[C@@H](Oc4ccc(C(F)(F)F)cn4)[C@@H]2C3)c1 [Example 88, (5-methyl-2-(2H-1,2,3-triazol-2-yl)pyridin-3-yl)((1S,4R,6R)-6-((5-(trifluoromethyl)pyridin-2-yl)oxy)-2-azabicyclo[2.2.1]heptan-2-yl)methanone] | 7.44 | 7.35 | < 5.00
2 | O=C(c1cccc(F)c1-c1ncc(F)cn1)N1C[C@H]2C[C@@H](Oc3ccc(C(F)(F)F)cn3)[C@@H]1C2 [Example 90, (3-fluoro-2-(5-fluoropyrimidin-2-yl)phenyl)((1S,4R,6R)-6-((5-(trifluoromethyl)pyridin-2-yl)oxy)-2-azabicyclo[2.2.1]heptan-2-yl)methanone] | 7.72 | 7.82 | 5.67
3 | Cc1ccc(-c2ncccn2)c(C(=O)N2C[C@H]3C[C@@H](Oc4ccc(C(F)(F)F)cn4)[C@@H]2C3)n1 [Example 92, (6-methyl-3-(pyrimidin-2-yl)pyridin-2-yl)((1S,4R,6R)-6-((5-(trifluoromethyl)pyridin-2-yl)oxy)-2-azabicyclo[2.2.1]heptan-2-yl)methanone] | 7.72 | 7.89 | 6.44
4 | O=C(c1nccnc1-c1ccccc1)N1C[C@H]2C[C@@H](Oc3ccc(C(F)(F)F)cn3)[C@@H]1C2 [Example 93, (3-phenylpyrazin-2-yl)((1S,4R,6R)-6-((5-(trifluoromethyl)pyridin-2-yl)oxy)-2-azabicyclo[2.2.1]heptan-2-yl)methanone] | 7.12 | 6.90 | 5.51
5 | O=C(c1cccc(F)c1-c1ncccn1)N1C[C@H]2C[C@@H](Oc3cccc(C(F)(F)F)n3)[C@@H]1C2 [Example 94, (3-fluoro-2-(pyrimidin-2-yl)phenyl)((1S,4R,6R)-6-((6-(trifluoromethyl)pyridin-2-yl)oxy)-2-azabicyclo[2.2.1]heptan-2-yl)methanone] | 7.52 | 7.46 | 6.07
6 | O=C(c1cccc(F)c1-c1ncccn1)N1C[C@H]2C[C@@H](Oc3cc(C(F)(F)F)ccn3)[C@@H]1C2 [Example 95, (3-fluoro-2-(pyrimidin-2-yl)phenyl)((1S,4R,6R)-6-((4-(trifluoromethyl)pyridin-2-yl)oxy)-2-azabicyclo[2.2.1]heptan-2-yl)methanone] | 7.43 | 7.54 | 6.86
7 | Cc1ccc(-n2nccn2)c(C(=O)N2CC3CC(Oc4ncc(C(F)(F)F)cc4F)C2C3)n1 [Example 98, (1S,4R,6R)-6-((3-fluoro-5-(trifluoromethyl)pyridin-2-yl)oxy)-2-azabicyclo[2.2.1]heptan-2-yl)(6-methyl-3-(2H-1,2,3-triazol-2-yl)pyridin-2-yl)methanone] | 7.55 | 7.43 | 5.92
8 | Cc1ccc(C(=O)N2C[C@H]3C[C@@H](Oc4ccc(Br)cn4)[C@@H]2C3)c(-n2nccn2)n1 [Example 105, ((1S,4R,6R)-6-((5-bromopyridin-2-yl)oxy)-2-azabicyclo[2.2.1]heptan-2-yl)(6-methyl-2-(2H-1,2,3-triazol-2-yl)pyridin-3-yl)methanone] | 6.47 | 6.92 | < 5.00
9 | O=C(c1ccc(F)cc1-n1nccn1)N1C[C@H]2C[C@@H](Oc3ccc(Br)cn3)[C@@H]1C2 [Example 107, ((1S,4R,6R)-6-((5-bromopyridin-2-yl)oxy)-2-azabicyclo[2.2.1]heptan-2-yl)(4-fluoro-2-(2H-1,2,3-triazol-2-yl)phenyl)methanone] | 7.59 | 7.80 | 5.71
10 | O=C(c1cc(F)ccc1-n1nccn1)N1C[C@H]2C[C@@H](Oc3ccc(Br)cn3)[C@@H]1C2 [Example 108, ((1S,4R,6R)-6-((5-bromopyridin-2-yl)oxy)-2-azabicyclo[2.2.1]heptan-2-yl)(5-fluoro-2-(2H-1,2,3-triazol-2-yl)phenyl)methanone] | 7.51 | 8.10 | 6.11

These reach a higher pKi [1]. Values come first.

Row | pKi [1] | pKi [2] | pKi [3] | SMILES
11 | 8.10 | 7.74 | 5.96 | O=C(c1ccccc1-c1ncc(F)cn1)N1C[C@H]2C[C@@H](Oc3ccc(C(F)(F)F)cn3)[C@@H]1C2 [Example 89, (2-(5-fluoropyrimidin-2-yl)phenyl)((1S,4R,6R)-6-((5-(trifluoromethyl)pyridin-2-yl)oxy)-2-azabicyclo[2.2.1]heptan-2-yl)methanone]
12 | 8.22 | 8.10 | 6.48 | Cc1cccc(C(=O)N2C[C@H]3C[C@@H](Oc4ccc(C(F)(F)F)cn4)[C@@H]2C3)c1-c1ncc(F)cn1 [Example 91, (2-(5-fluoropyrimidin-2-yl)-3-methylphenyl)((1S,4R,6R)-6-((5-(trifluoromethyl)pyridin-2-yl)oxy)-2-azabicyclo[2.2.1]heptan-2-yl)methanone]
13 | 7.82 | 7.68 | 5.96 | O=C(c1ccccc1-n1nccn1)N1C[C@H]2C[C@@H](Oc3ncc(C(F)(F)F)cc3F)[C@@H]1C2 [Example 97, (2-(2H-1,2,3-triazol-2-yl)phenyl)((1S,4R,6R)-6-((3-fluoro-5-(trifluoromethyl)pyridin-2-yl)oxy)-2-azabicyclo[2.2.1]heptan-2-yl)methanone]
14 | 8.00 | 7.96 | 6.14 | O=C(c1ccccc1-c1ncccn1)N1C[C@H]2C[C@@H](Oc3ncc(C(F)(F)F)cc3F)[C@@H]1C2 [Example 99, ((1S,4R,6R)-6-((3-fluoro-5-(trifluoromethyl)pyridin-2-yl)oxy)-2-azabicyclo[2.2.1]heptan-2-yl)(2-(pyrimidin-2-yl)phenyl)methanone]
15 | 7.92 | 7.89 | 5.80 | O=C(c1cccc(F)c1-c1ncccn1)N1C[C@H]2C[C@@H](Oc3ncc(C(F)(F)F)cc3F)[C@@H]1C2 [Example 100, (3-fluoro-2-(pyrimidin-2-yl)phenyl)((1S,4R,6R)-6-((3-fluoro-5-(trifluoromethyl)pyridin-2-yl)oxy)-2-azabicyclo[2.2.1]heptan-2-yl)methanone]
16 | 7.96 | 7.59 | 6.15 | Cc1ccc(O[C@@H]2C[C@H]3C[C@@H]2N(C(=O)c2cccc(F)c2-c2ncccn2)C3)nc1 [Example 101, (3-fluoro-2-(pyrimidin-2-yl)phenyl)((1S,4R,6R)-6-((5-methylpyridin-2-yl)oxy)-2-azabicyclo[2.2.1]heptan-2-yl)methanone]
17 | 8.40 | 8.52 | 6.36 | O=C(c1cccc(F)c1-n1nccn1)N1C[C@H]2C[C@@H](Oc3ccc(Br)cn3)[C@@H]1C2 [Example 106, ((1S,4R,6R)-6-((5-bromopyridin-2-yl)oxy)-2-azabicyclo[2.2.1]heptan-2-yl)(3-fluoro-2-(2H-1,2,3-triazol-2-yl)phenyl)methanone]
18 | 8.30 | 8.22 | 6.35 | O=C(c1c(F)cccc1-n1nccn1)N1C[C@H]2C[C@@H](Oc3ccc(Br)cn3)[C@@H]1C2 [Example 109, ((1S,4R,6R)-6-((5-bromopyridin-2-yl)oxy)-2-azabicyclo[2.2.1]heptan-2-yl)(2-fluoro-6-(2H-1,2,3-triazol-2-yl)phenyl)methanone]
19 | 7.96 | 8.22 | 5.92 | O=C(c1ccc(F)cc1-c1ncccn1)N1C[C@H]2C[C@@H](Oc3ccc(Br)cn3)[C@@H]1C2 [Example 110, ((1S,4R,6R)-6-((5-bromopyridin-2-yl)oxy)-2-azabicyclo[2.2.1]heptan-2-yl)(4-fluoro-2-(pyrimidin-2-yl)phenyl)methanone]
20 | 8.30 | 8.30 | 6.34 | O=C(c1cc(F)ccc1-c1ncccn1)N1C[C@H]2C[C@@H](Oc3ccc(Br)cn3)[C@@H]1C2 [Example 111, ((1S,4R,6R)-6-((5-bromopyridin-2-yl)oxy)-2-azabicyclo[2.2.1]heptan-2-yl)(5-fluoro-2-(pyrimidin-2-yl)phenyl)methanone]
